Assay results reported in patent publication US20030003583A1, “Regulation of transgene expression following AAV transduction” (priority 2001, published 2003).
Residues, ends and D or L forms follow the SMILES beside them. *: point of attachment. Cbz = O=C(OCc1ccccc1)*

Legend:
[1] = system: human type B synoviocytes infected with rAAV(mIL-10); test: Mouse IL-10 transgene expression (ELISA of supernatants) in human type B synoviocytes infected with rAAV(mIL-10); type: cell-based
Description: Synoviocytes were infected with rAAV on day 0. On day 1, cells were exposed to the indicated amounts of zLLL for 24 hours. Supernatants were harvested on days 3 and 7 and assayed by ELISA for mouse IL-10.
Synoviocytes were infected with rAAV on day 0. At various times (indicted by the arrows), some cells were exposed to 40 μM of zLLL for 24 hours (A) or to recombinant adenovirus lacking a transgene (B). Supernatants were harvested and assayed by ELISA for mouse IL-10.
Kwon, C. Mah, and A. Srivastava. 2000. Impaired intracellular trafficking of adeno-associated virus type 2 vectors limits efficient transduction of murine fibroblasts. J Virol 74:992-996) to determine whether human synoviocytes could be made to express a transgene following AAV-mediated gene transfer. […] This is inconsistent with the proposed mechanism of action of zLLL, that of increasing viral trafficking to the nucleus, as transgene expression should be stable once the viral genome reaches the nucleus and sufficient second strand synthesis occurs.
(§1) To further explore this finding, synovial cells were re-exposed to zLLL following the loss of transgene expression. […] In each case, expression peaked 2-3 days following exposure to zLLL and then dropped off. We were able to re-induce transgene expression as far out as 25 days after infection. We have not yet looked at further time points, but we can already conclude that the transgene persists in the synoviocytes for an extended period of time and that its expression can be regulated by zLLL.
This is inconsistent with the proposed mechanism of action of zLLL, that of increasing viral trafficking to the nucleus, as transgene expression should be stable once the viral genome reaches the nucleus and sufficient second strand synthesis occurs.
as §1, with “reinduce” for “re-induce”

[2] = system: human type B synoviocyte cultures infected with rAAV(mIL-4); test: Real-time PCR of transgene mRNA in human type B synoviocytes infected with rAAV(mIL-4); type: cell-based; settings: 40 μM zLLL for 24 hours
Description: Human type B synoviocyte cultures were infected with rAAV(mIL-4). Ten days later, some cells were exposed to 40 μM of zLLL for 24 hours. Cells were harvested and RNA was extracted, reverse transcribed, and subjected to real-time PCR using a LightCycler™ System (Roche Molecular Biochemicals, Indianapolis, Ind.) with the FastStart DNA Master SYBR Green I reaction mix and gene specific primers. LIGHTCYCLER Quantification Software v5.32 was used to compare amplification in the samples during the log-linear phase. Data are normalized to the AAV(mIL-4) samples, which are given a value of 1. The ZLLL group was not infected with AAV (IL-4).
Synoviocytes transduced with AAV(mIL-4) were exposed to zLLL and RNA was extracted and subjected to real-time PCR. zLLL induced a 250-fold increase in mIL-4 mRNA with no increase in the constituitively-expressed gene, GAPDH (FIG. 4).

[3] = system: RA synovium implanted into SCID mice; test: Luciferase expression in RA synovium implanted into SCID mice, injected with AAV(Luc), after in vivo zLLL; settings: zLLL into the synovial tissue or intraperitoneally two weeks after AAV(Luc); tissue removed 48 hours later
Description: RA synovium was implanted into SCID mice. Two weeks later, synovial tissues were injected with 6.8×10^10 particles of AAV(Luc). Two weeks following rAAV administration, zLLL was administered in a 100 μl volume either directly into the synovial tissue or intraperitoneally. Synovial tissues were removed 48 hours later, homogenized, and assayed for luciferase content.
The optimal in vivo dose and route of administration is unclear from this preliminary study and will be addressed in the proposed experiments.

other cell types = settings: cited from earlier work
mouse lungs = settings: in vivo; cited from earlier work
proteasome = settings: cited from earlier work

Compound | transgene expression on re-exposure after loss of expression ([1]; 40 μM zLLL for 24 hours at various times) | expression of a mouse IL-10 transgene ([1]; 3 days following infection with rAAV, zLLL for 24 hours on day 1, dose dependent) | expression of mouse IL-10 transgene by day 7 ([1]; day 7 after infection, single 24 h zLLL exposure on day 1) | latest time after infection at which transgene expression was re-induced ([1]; days after infection) [days] | time of peak expression following exposure ([1]; following each exposure to zLLL) [days] | change in constitutively expressed gene GAPDH mRNA [2] | increase in mIL-4 mRNA ([2]; ten days after infection, normalized to AAV(mIL-4) samples) [fold] | in vivo transgene (luciferase) expression [3] | nuclear accumulation of rAAV particles and the rAAV genome (other cell types) | rAAV-mediated transduction in mouse lungs (mouse lungs) | specificity for the proteasome / other proteases inhibited (proteasome)
CC(C)C[C@@H](C=O)NC(=O)[C@H](CC(C)C)NC(=O)[C@H](CC(C)C)NC(=O)OCc1ccccc1 [zLLL, Carbobenzoxyl-L-leucyl-L-leucyl-L-leucinal] (Cbz-Leu-Leu-Leu-aldehyde) | could be repeatedly induced | dramatically enhanced | expression was lost | 25 | 2 to 3 | no increase | 250 | dramatically enhanced | increase nuclear accumulation | enhance rAAV-mediated transduction | can also inhibit certain lysosomal cysteine proteases and the calpains
CC(=O)N[C@@H](CSC(=O)[C@]1([C@@H](O)C(C)C)NC(=O)[C@H](C)[C@@H]1O)C(=O)O [Lactacystin] | – | – | – | – | – | – | – | – | – | – | high specificity for the proteasome
